Laboratory results published in ChEMBL document CHEMBL5653610, “The novel phosphodiesterase 10A inhibitor THPP-1 has antipsychotic-like effects in rat and improves cognition in rat and rhesus monkey” (Neuropharmacology, 2013).
The source made the active and inactive calls. The calls are words filed in the database; no cut-off is given here.

Tests used:
[1] = target: T1, cAMP and cAMP-inhibited cGMP 3',5'-cyclic phosphodiesterase 10A (Rattus norvegicus, UniProt Q9QYJ6); experiment: Inhibition of rat PDE10A2 assessed as inhibition of cAMP hydrolysis by fluorescence polarization assay
T1 sequence (Q9QYJ6 whole entry): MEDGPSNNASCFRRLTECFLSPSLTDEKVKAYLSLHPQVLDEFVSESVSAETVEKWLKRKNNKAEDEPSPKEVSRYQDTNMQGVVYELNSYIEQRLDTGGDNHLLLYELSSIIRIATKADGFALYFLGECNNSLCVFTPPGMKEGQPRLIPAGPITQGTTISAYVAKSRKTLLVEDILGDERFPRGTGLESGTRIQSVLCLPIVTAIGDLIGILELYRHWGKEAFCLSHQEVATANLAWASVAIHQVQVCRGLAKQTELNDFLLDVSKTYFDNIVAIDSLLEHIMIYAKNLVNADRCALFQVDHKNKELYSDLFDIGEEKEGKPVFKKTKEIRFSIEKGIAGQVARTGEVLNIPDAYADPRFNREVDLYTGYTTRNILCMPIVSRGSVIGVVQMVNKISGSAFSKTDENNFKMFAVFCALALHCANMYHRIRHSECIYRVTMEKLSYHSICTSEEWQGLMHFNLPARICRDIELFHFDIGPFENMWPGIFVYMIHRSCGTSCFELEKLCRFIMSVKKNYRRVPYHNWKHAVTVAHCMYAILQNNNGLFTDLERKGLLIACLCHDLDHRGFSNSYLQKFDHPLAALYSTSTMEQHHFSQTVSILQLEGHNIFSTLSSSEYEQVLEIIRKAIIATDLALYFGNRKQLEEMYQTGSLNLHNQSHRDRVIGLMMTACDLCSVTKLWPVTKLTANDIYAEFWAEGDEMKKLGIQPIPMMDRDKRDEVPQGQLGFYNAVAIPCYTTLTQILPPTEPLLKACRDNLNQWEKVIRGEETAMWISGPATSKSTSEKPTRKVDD

[2] = Protein binding in orally dosed rat plasma after 2 hrs by UPLC-MS analysis; format: ADME, organism-based; conditions: route po, read-out: PPB (converted)
[3] = Protein binding in orally dosed dog plasma after 2 hrs by UPLC-MS analysis; format: ADME, organism-based, Canis lupus familiaris; conditions: route po, read-out: PPB (converted)
[4] = Protein binding in orally dosed rhesus monkey plasma after 4 hrs by UPLC-MS analysis; format: ADME, organism-based, Macaca mulatta; conditions: route po, read-out: PPB (converted)
[5] = Clearance in orally dosed rat after 2 hrs by UPLC-MS analysis; format: ADME, organism-based; conditions: in vivo, route po
[6] = Clearance in orally dosed dog after 2 hrs by UPLC-MS analysis; format: ADME, organism-based, Canis lupus familiaris; conditions: in vivo, route po
[7] = Clearance in orally dosed rhesus monkey after 4 hrs by UPLC-MS analysis; format: ADME, organism-based, Macaca mulatta; conditions: in vivo, route po
[8] = Half life in orally dosed rat after 2 hrs by UPLC-MS analysis; format: ADME, organism-based; conditions: in vivo, route po
[9] = Half life in orally dosed dog after 2 hrs by UPLC-MS analysis; format: ADME, organism-based, Canis lupus familiaris; conditions: in vivo, route po
[10] = Half life in orally dosed rhesus monkey after 4 hrs by UPLC-MS analysis; format: ADME, organism-based, Macaca mulatta; conditions: in vivo, route po
[11] = Bioavailability in orally dosed rat after 2 hrs by UPLC-MS analysis; format: ADME, organism-based; conditions: in vivo, route po
[12] = Bioavailability in orally dosed dog after 2 hrs by UPLC-MS analysis; format: ADME, organism-based, Canis lupus familiaris; conditions: in vivo, route po
[13] = Bioavailability in orally dosed rhesus monkey after 4 hrs by UPLC-MS analysis; format: ADME, organism-based, Macaca mulatta; conditions: in vivo, route po
Rattus norvegicus [14] = experiment: In-vivo increase of GluR1 S845 phosphorylation in membrane fraction of Wistar Hannover rat striatal tissues at 3 to 30 mg/kg, po after 2 hrs by Western blot analysis; format: functional, organism-based; conditions: Striatum, dose 3-30 mg/kg
Rattus norvegicus [15] = experiment: Effect on total levels of GluR1 protein in membrane fraction of Wistar Hannover rat striatal tissues at 3 to 30 mg/kg, po by Western blot analysis; format: functional, organism-based; conditions: Striatum, dose 3-30 mg/kg
Rattus norvegicus [16] = experiment: In-vivo increase of GluR1 S845 phosphorylation in membrane fraction of Wistar Hannover rat striatal tissues at 30 mg/kg, po after 2 hrs by Western blot analysis relative to control; format: functional, Striatum
Rattus norvegicus [17] = experiment: In-vivo increase of pGluR1/GluR1 ratios in membrane fraction of Wistar Hannover rat striatal tissues at 3 to 30 mg/kg, po after 2 hrs by Western blot analysis; format: functional, organism-based; conditions: Striatum, dose 3-30 mg/kg
Rattus norvegicus [18] = experiment: In-vivo increase of ERK in membrane fraction of Wistar Hannover rat striatal tissues at 30 mg/kg, po after 2 hrs by Western blot analysis relative to control; format: functional, organism-based; conditions: Striatum
Rattus norvegicus [19] = experiment: In-vivo increase of CREB phosphorylation in membrane fraction of Wistar Hannover rat striatal tissues at 10 mg/kg, po after 2 hrs by Western blot analysis relative to control; format: functional, Striatum
Rattus norvegicus [20] = experiment: Effect on concentration of cyclic nucleotides in Wistar Hannover rat striatal tissues at 3 to 30 mg/kg, po by Western blot analysis; format: functional, organism-based; conditions: Striatum, dose 3-30 mg/kg
Rattus norvegicus [21] = experiment: Effect on phosphorylation of proteins in other brain regions (prefrontal cortex and hippocampus) in Wistar Hannover rat at 3 to 30 mg/kg, po by Western blot analysis; format: functional, organism-based; conditions: dose 3-30 mg/kg
[22] = Total drug level in Wistar Hannover rat plasma at 0.1 mg/kg, po after 2 hrs by UPLC-MS analysis; format: ADME, organism-based
[23] = Total drug level in Wistar Hannover rat plasma at 0.3 mg/kg, po after 2 hrs by UPLC-MS analysis; format: ADME, organism-based
[24] = Total drug level in Wistar Hannover rat plasma at 1 mg/kg, po after 2 hrs by UPLC-MS analysis; format: ADME, organism-based
[25] = Total drug level in Wistar Hannover rat plasma at 3 mg/kg, po after 2 hrs by UPLC-MS analysis; format: ADME, organism-based
[26] = Total drug level in Wistar Hannover rat plasma at 10 mg/kg, po after 2 hrs by UPLC-MS analysis; format: ADME, organism-based
[27] = Total drug level in Wistar Hannover rat plasma at 30 mg/kg, po after 2 hrs by UPLC-MS analysis; format: ADME, organism-based

Ki [1]: 1.3 nM
fraction unbound at 2 h [2]: 0.018
fraction unbound at 2 h [3]: 0.03
fraction unbound at 4 h [4]: 0.012
CL/F [5]: 6 mL/min/kg
CL/F [6]: 3.8 mL/min/kg
CL/F [7]: 7.7 mL/min/kg
half-life [8]: 1.4 h
half-life [9]: 7.2 h
half-life [10]: 1.4 h
bioavailability [11]: 47%
bioavailability [12]: 79%
bioavailability [13]: 31%
concentration at 2 h [22]: 32 nM
concentration at 2 h [23]: 117 nM
concentration at 2 h [24]: 270 nM
concentration at 2 h [25]: 745 nM
concentration at 2 h [26]: 1320 nM
concentration at 2 h [27]: 1800 nM
Compound: COCCOc1nc(-c2ccc(Cl)nc2)nc2c1CN(C(=O)c1ncn3ccccc13)CC2 [THPP-1]
Activity (Rattus norvegicus [14]): Dose-Dependent Effect
Activity (Rattus norvegicus [15]): inactive
fold change (FC) (Rattus norvegicus [16]): 9.5
Activity (Rattus norvegicus [17]): Active
Activity (Rattus norvegicus [18]): Dose-Dependent Effect
fold change (FC) (Rattus norvegicus [19]): 2.3
Activity (Rattus norvegicus [20]): inactive
Activity (Rattus norvegicus [21]): inactive
